Consider two molecules from patent US7887599B2, “Methods of use of biodegradable injectable implants” (priority 2001, dated 2011).

Series [1] concerns skin. The note with it: documented; cited from earlier work.
Series [2] has as its system guinea pigs. Conditions: guinea pig, in vivo.
From the text: (§1) In a preliminary test, 39 guinea pigs were used to define product concentration for intradermal injections. All were adult animals and sex was not considered. They were divided in 4 different cages, each containing 9, 10, 10 and 10 animals. […] Evaluations were taken after the 3rd and 7th day.
The subject of series [3] is human patients. Conditions: in comparison to the retinoids (Personelli); cited from earlier work.
The test system of series [4] is human patients. The experiment in a line: Intradermal application of glycolic acid in human patients. Conditions: 35 human patients, intradermal application of 5 ml at 0.01%. Format: in vivo.
Series [5] relates to guinea pigs. The experiment in a line: Preliminary test of glycolic acid concentration for intradermal injections in guinea pigs.
From the text: as §1
Series [6] has as its system skin. The experiment in a line: Injection of GA alone, re-hydrating effect on the skin. Format: in vivo, human.
The conditions of series [7]: cited from earlier work.

As to `O=C(O)CO` [glycolic acid], the “increase in skin moisture” value in the series on skin [1] is recorded as 300%. Moreover, the “animals showing a minimal oedema and hyperaemia” value in the series on guinea pigs [2] was found to be 40%. Further, the “animals with no edema and no hyperaemia” value with guinea pigs [2] is 60%. In addition, in the series with guinea pigs [2], the ideal dose stood at 0.01%. The local toxicity entry with human patients [3] was “low local toxicity”. For the same molecule, the “systemic effect or comedomic action” value with human patients [3] is reported as “no systemic effect or comedomic action”. Further, the “adverse reactions in tissues (hyperemia, edema or discreet ecchymosis)” value in the series with human patients [4] was “no adverse reactions”. The tissue finding entry in the series with guinea pigs [5] (0.1 ml at 0.1%, 3rd day) was “tissue necrosis”; with guinea pigs [5] (0.1 ml at 0.1%, 7th day), “ulcer”; with guinea pigs [5] (0.1 ml at 0.2%, 3rd day), “moderate hyperaemia and edema”; in the series on guinea pigs [5] (0.1 ml at 0.2%, 7th day) it was “normal tissue (regular)”; in the series with guinea pigs [5] (0.1 ml at 0.3%, 3rd day) it was “evident hyperaemia edema”; in the series on guinea pigs [5] (0.1 ml at 0.3%, 7th day) it was “epydermolyse and edema”. Besides, the “re-hydrating effect of the skin” value with skin [6] is given as “remarkable re-hydrating effect”.
For `OC[C@@H](O)[C@@H](O)[C@H](O)[C@H](O)CO` [D-mannitol], the solubility in water result in series [7] is given as “readily soluble”.
